Data from patent US20210113687A1, “METHODS FOR TREATING INFLAMMATION” (NEW YORK UNIVERSITY, priority 2013, published 2021).

Assays:
[1] = system: human Unc5H2 promoter-luciferase reporter; assay: Unc5H2 promoter-luciferase assay (Example 4); type: cell-based; details: HEK293 cells
Experimental: (§1) Promoter-Luciferase assays. HEK293T cells were transfected with human NTNI or Unc5H2 promoter-luciferase reporter constructs (SwitchGear Genomics) using Lipofectamine™ 2000 (11668-019, Invitrogen) After transfection, media was changed and cells were treated with palmitate or BSA for 24 hours, in the presence or absence of the NFkB inhibitor BAY 11-7082 (10 μmol/L). Luciferase activity was measured using the DUAL-Glo Luciferase Assay system (E1910, Promega).

[2] = system: human NTNI promoter-luciferase reporter; assay: NTN1 promoter-luciferase assay (Example 4); type: cell-based; details: HEK293 cells
Experimental: as §1

BMDM [3] = assay: qRT-PCR of BMDM (palmitate, cytokines, adipocyte conditioned media); type: cell-based, mouse; details: BMDMs, palmitate conjugated to BSA
Experimental: (§2) Real-time Quantitative RT-PCR Analysis RNA (0.5-1 μg) was reverse transcribed using iScript™ cDNA Synthesis Kit (Biorad) and RT-PCR analysis was conducted using kapa SYBR green Supermix (kappa syber) and a Mastercycler Realplex (Eppendorf) the primers used are listed. Fold change in mRNA expression was calculated using the comparative cycle method (ΔΔCt).
(§3) Cell culture. Primary bone marrow derived macrophage (BMDM) was prepared by flushing the bone marrow of the tibia and femur of 6-8 week old C57/B6 mice. The cells were grown in DMEM supplemented with 15% L929-conditioned media, 10% FBS and 1% penicillin/streptomycin for 7 days. BMDM were stimulated 250 pM palmitate conjugated with BSA or BSA as a control for 24 hours, or TNFα (10 ng/ml, 410-MT-010; R&D systems), IL-6 (40 nglml, 406-ML-005; R&D systems) and IL-4 (1 Onglml, 404-ML-010; R&D systems) for 24 h. In some assays, differentiated BMDM were treated with conditioned media from 3T3-L1 adipocytes differentiated as described (Lin, et al., J Biol Chem, 2005; 280:4617-4626) and treated with 250 pM palmitate conjugated with BSA or BSA for 24 hours. In certain experiments, anti-TNFα (0.4 μg/ml, AF-410-NA, R&D systems) or anti-IL-6 (0.025 μg/ml, MAB406; R&D systems) blocking antibody or IgG control (Normal Goat IgG: AB-108-C, Rat IgG1: MAB005; R&D systems) was added to conditioned media. Peritoneal macrophages were isolated as described (van Gils, et al., Nat Immunol, 2012; 13:136-143). Mice were injected intraperitoneally with 1 ml of 3% (wt/vol) thioglycolate to elicit sterile sterile peritonitis with macrophage numbers peaking on day 4. Cells were collected by lavage and used for migration assays.
Palmitate-BSA preparation. Sodium palmitate (P9767; Sigma Aldrich) was dissolved in sterile water in to make a 100-mM solution by alternating heating and vortexing until the palmitate was dissolved. Thu occurred once the solution reached 70 C. […]

3T3L1 adipocytes = assay: qRT-PCR of 3T3L1 adipocytes; type: cell-based; details: palmitate treatment
Experimental: as §2
as §3, with “Peritoneal macrophages were isolated as described (van Gils, et al., Nat Immunol, 2012; 13:136-143). Mice were injected intraperitoneally with 1 ml of 3% (wt/vol) thioglycolate to elicit sterile sterile peritonitis with macrophage numbers peaking on day 4. Cells were collected by lavage and used for migration assays.” left out

BMDM [4] = assay: netrin-1 ELISA of BMDM supernatants; type: cell-based, mouse
Experimental: as §3, with “Peritoneal macrophages were isolated as described (van Gils, et al., Nat Immunol, 2012; 13:136-143). Mice were injected intraperitoneally with 1 ml of 3% (wt/vol) thioglycolate to elicit sterile sterile peritonitis with macrophage numbers peaking on day 4. Cells were collected by lavage and used for migration assays.” left out
ELISA assay. Insulin (90080; crystal Chem Inc), adiponectin (ab108785; Abeam), FFA (SFA-1; Zen Bio), TNFa (88-7064-76; ebiosciences) and netrin-1 (E91827Mu; USCN life science Inc) levels were measured in the serum using mouse standards according to manufacturer's guidelines. Netrin-1 in human serum was measured using a human-specific netrin-1 ELISA from USCN Life Science Inc (700176; mybiosource).

peritoneal macrophages = assay: Migration of palmitate-treated peritoneal macrophages to CCL19; type: cell-based, mouse; details: treatment with palmitate
Experimental: as §3, with “Mice were injected intraperitoneally with 1 ml of 3% (wt/vol) thioglycolate to elicit sterile sterile peritonitis with macrophage numbers peaking on day 4. Cells were collected by lavage and used for migration assays.” left out
Migration. The migration of ATM or peritoneal macrophages to CCL19 (500 ng/ml; R&D Systems) was assessed by the xCelligence Real-time Cell Invasion and Migration system (ACEA biosciences Inc) that monitored chemotaxis every 5 minutes for over 6 h. […]

BMDMs = assay: qPCR of Sema3e mRNA in macrophages; type: cell-based, mouse; details: BMDM, CoCl2
Experimental: Total RNA was isolated from cells using TRIzol Reagent (Invitrogen). RNA (1 μg) was reverse-transcribed with an iScript cDNA Synthesis kit according to the manufacturer's instructions (Bio-Rad). KAPA SYBR FAST qPCR Master Mix was used for RT-PCR analysis. Primers used are listed in supplemental Table I. The change in mRNA expression was calculated by the comparative change in cycle method (ΔΔCT). All data were normalized to GAPDH or 28S and were expressed as fold change over the control.
RAW264.7 cells were obtained from American Type Culture Collection. Peritoneal macrophages (pMø) were collected from mice by peritoneal lavage 4 d after intraperitoneal injection of 3% (wt/vol) thioglycollate as previously described (Kunjathoor, et al., J Biol Chem., 2002, 277:49982-49988). Bone marrow derived macrophages (BMDMs) were prepared from mice as previously described (Kunjathoor, et al., J Biol Chem., 2002, 277:49982-49988). For gene expression experiments, macrophages were plated at 1×10^6 cells/well in 6 well plates. CoCl2 (0.1M solution) was obtained from Sigma and used at the concentrations indicated to mimic hypoxia. Oxidation or acetylation of LDL (50 μg/mL; Biomedical Technologies) was performed as described (Kunjathoor, et al., J Biol Chem., 2002, 277:49982-49988). Recombinant IL-4 and IFN-γ were purchased from PeproTech. Ultrapure LPS from E. coli K12 was purchased from InvivoGen.

BMDM [5] = assay: BMDM migration towards MCP-1 (xCelligence); type: cell-based, mouse; details: CoCl2-treated vs control macrophages
Experimental: Macrophage chemotaxis was measured using the Real-Time Cell Invasion and Migration xCelligence Assay System with monitoring every 3 min (Roche Applied Science). BMDM migration towards MCP-1 (100 ng/ml; R&D Systems) was measured in the presence or absence of oxLDL (50 μg/ml) and/or recombinant rat UNC5b-Fc chimera (1006-UN; R&D Systems) to block the effects of netrin-1. In a subset of experiments, cells were pre-treated with 0.1 mmol/L CoCl2 for 1 h prior to migration. J774 macrophage migration was carried out in the presence or absence of UNC5b-Fc chimera. Results of chemotaxis assays are representative of at least three independent experiments performed on triplicate samples.

activity of Unc5b-promoter luciferase reporter [1]	activity of Ntn1-promoter luciferase reporter [2]	SMILES	increase in Ntn1 mRNA (BMDM [3]) [fold]	increase in Unc5b mRNA (BMDM [3]) [fold]	Tnfa and Il6 mRNA in adipocytes (3T3L1 adipocytes)	secretion of netrin-1 by BMDM (ELISA) (BMDM [4])	migration of peritoneal macrophages to CCL19 (peritoneal macrophages)	macrophage Sema3e mRNA increase (BMDMs) [fold]	ability of BMDM to migrate to MCP-1 (BMDM [5])
induced the activity	induced the activity	CCCCCCCCCCCCCCCC(=O)[O-].[Na+] [palmitate, Sodium palmitate]	5	3	induced expression	induced secretion	blocked the migration	–	–
–	–	[Cl][Co][Cl] [CoCl2, Cobalt chloride]	–	–	–	–	–	5	strongly impaired
